In patent EP4755880A1, “SUBSTITUTED NITROGEN-CONTAINING BICYCLIC COMPOUND AND USE THEREOF” (Sunshine Lake Pharma Co., Ltd., priority 2023, dated 2025):

Legend:
MDA-MB-436 cells = test: Inhibition of proliferation of MDA-MB-436 cells (CellTiter-Glo); type: cell-based; settings: Homo sapiens, MDA-MB-436, 168 h, 7 days incubation
Procedure: • 1. Cell Pretreatment: MDA-MB-436 cells were cultured in DMEM + 10% FBS + 1% penicillin-dip antibiotics + 1% ITS + 16 µg/ml glutathione. Cells in the logarithmic growth phase were digested with trypsin-EDTA, centrifuged and resuspended, and then seeded at a rate of 500-1000 cells/well in sterile 96-well opaque plates, 90 µl per well. After seeding, the cell culture plates were incubated overnight at 37°C with 5% CO2 before drug treatment. • 2. Drug treatment of MDA-MB-436 cells: The test compound was prepared as a 10 mM stock solution using DMSO. The drug was then diluted to a 10× working solution using growth medium (the compound was started at 100 µM and diluted 4-fold to achieve 9 concentrations). 10 µl of the 10× working solution was added to each well to achieve final drug concentrations of 10000, 2500, 625, 156, 39, 9.7, 2.4, 0.61, and 0.152 nM, respectively. Blank control wells containing the same DMSO concentration were also included, with three replicates for each concentration. After drug addition, the cells were incubated at 37°C with 5% CO2 for 7 days. • 3. After incubation, 100 µl of CellTiter-Glo® Reagent was added to each well, and luminescence was measured. The IC50 value of cell proliferation inhibition was calculated using GraphPad software to fit the curve. Table E: Results of the inhibitory effect of the compound of this invention on the proliferation of MDA-MB-436 cells.

PARP2 = PARP2 (Homo sapiens, UniProt Q9UGN5); test: biochemical;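 note: PARP2 enzyme ELISA on histone-coated plates, Strep-HRP detection with chemiluminescence read-out, 10 min compound preincubation with enzyme, inhibition scaled between Max and Min signal controls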
Chain of PARP2 (Q9UGN5 whole entry): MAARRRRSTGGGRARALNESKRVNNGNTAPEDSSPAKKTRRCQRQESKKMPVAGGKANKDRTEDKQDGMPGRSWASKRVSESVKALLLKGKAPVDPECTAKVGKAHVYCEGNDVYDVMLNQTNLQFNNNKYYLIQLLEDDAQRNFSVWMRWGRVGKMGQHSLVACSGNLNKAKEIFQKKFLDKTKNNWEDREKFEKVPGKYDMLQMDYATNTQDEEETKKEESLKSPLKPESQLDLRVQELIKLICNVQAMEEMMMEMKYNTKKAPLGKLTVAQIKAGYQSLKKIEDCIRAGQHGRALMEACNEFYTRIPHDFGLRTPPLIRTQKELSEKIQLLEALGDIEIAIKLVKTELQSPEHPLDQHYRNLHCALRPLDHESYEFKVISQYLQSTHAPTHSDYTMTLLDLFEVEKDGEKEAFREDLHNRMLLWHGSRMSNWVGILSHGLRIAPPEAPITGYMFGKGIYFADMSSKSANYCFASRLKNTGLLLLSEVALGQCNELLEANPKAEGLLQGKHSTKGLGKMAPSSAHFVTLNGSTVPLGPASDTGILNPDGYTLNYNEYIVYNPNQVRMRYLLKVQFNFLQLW
Procedure: (§1) Experimental Objective: To evaluate the inhibitory effect of the compounds of the present invention on the enzyme activities of PARP1 and PARP2 using ELISA.
(§2) • 1. histone-coated 384-well plates was prepared: 25 µL of histone solution was added to each well and incubated overnight at 4 °C. • 2. PBST buffer, blocking buffer (PBS buffer with 5% BSA and 0.05% Tween-20 added) and detection buffer (20 mM HEPES pH 7.5 + 100 mM NaCl + 2 mM DTT + 0.002% Tween-20 + 0.1% BSA) were prepared. • 3. The histone-coated 3 84-well plate was washed three times with PBST buffer, blocked at room temperature with 50 µL blocking buffer for 1 hour, and then washed three times with PBST buffer. • 4. Test compounds were prepared as 2000-fold stock solutions in DMSO. 50 nL of the stock solution was mixed with 19.95 µL detection buffer, and 5 µL of the gradient-diluted test compound was transferred to each well. • 5. Enzymatic reaction (PARP1): PARP1 & DNA mix was pre-incubated at 25 °C for 10 minutes. 10 µL of the PARP1 & DNA mix was added to each well and incubated with the test compound at room temperature for 10 minutes. […] Finally, the 384-well plate was washed three times with PBST buffer. Enzymatic reaction (PARP2): PARP2 was pre-incubated at 25 °C for 10 minutes. 10 µL of PARP2 was added to each well and incubated with the test compound at room temperature for 10 minutes. […] Finally, the 384-well plate was washed three times with PBST buffer. • 6. Detection (PARP1): 20 µL of anti-Poly/Mono-ADP Ribose Rabbit mAb was added and incubated at room temperature for 1.5 hours, followed by three washes of the 384-well plate with PBST buffer. Then, 20 µL of diluted anti-rabbit IgG, HRP-linked Antibody (diluted 1:2000 in blocking buffer) was added and incubated at room temperature for 1 hour. After washing the plate three times with PBST buffer, 25 µL of a 1:1 mixture of Femto-ECL Substrate A and Femto-ECL Substrate B was added. Detection (PARP2): 25 µL of Strep-HRP was added and incubated at room temperature for 1 hour, followed by three washes of the 384-well plate with PBS buffer. Then, 25 µL of a 1:1 mixture of Femto-ECL Substrate A and Femto-ECL Substrate B was added. • 7. Chemiluminescence intensity was measured using an Envision multimode microplate reader. • 8. Data Processing
(§3) The inhibition rate was calculated in Excel using formula (1). inh% = (Max−Signal)/(Max−Min)*100 [formula]
(§4) The IC50 value was obtained by fitting the data in XL-Fit using formula (2). Y = bottom + (top−bottom)/(1+(IC50/X)*HillSlope); [formula] wherein Y is the inhibition percentage and X is the compound concentration.

DLD-1 BRCA2(-/-) cells = test: Inhibition of proliferation of DLD-1 BRCA2(-/-) cells (CTG method); type: cell-based; settings: Homo sapiens, DLD-1, 168 h; 7 days incubation, CellTiter-Glo
Procedure: • 1. Cell Pretreatment: DLD-1 BRCA2(-/-) cells were cultured in growth medium 1640 + 10% FBS (fetal bovine serum) + 1% Penicillin-Streptomycin. Cells in the logarithmic growth phase were digested with trypsin-EDTA, centrifuged, and resuspended. DLD-1 BRCA2(-/-) cells were seeded at 1,000 cells/well in sterile 96-well opaque plates, 75 µl per well. After seeding, the cell culture plates were incubated overnight at 37 °C with 5% CO2 before adhesion, followed by treatment with the test compounds. • 2. DLD-1 BRCA2(-/-) Cell Drug Treatment: The test compound was prepared as a 10 mM stock solution using DMSO. The test compound was then diluted to a 4× working solution using growth medium (starting at 40 µM, with 9 4-fold dilutions). 25 µl of 4× working solution was added to each well to achieve final concentrations of 10000, 2500, 625, 156, 39, 9.7, 2.4, 0.61, and 0.152 nM, respectively. Blank control wells containing the same DMSO concentration were also included, with three replicates for each concentration. After adding the test compound, the cells were incubated at 37 °C with 5% CO2 for 7 days. • 3. After incubation, 100 µl of CellTiter-Glo® Reagent was added to each well, and […] intensity was measured. A curve was fitted using GraphPad software, and the IC50 value for cell proliferation inhibition was calculated.

PARP1 = PARP1 (Homo sapiens, UniProt P09874); test: Inhibition of PARP1 enzyme activity (ELISA, chemiluminescence); type: biochemical; settings: for IC50: ELISA, histone-coated plate, NAD+, 60 min at 25 °C; for Selectivity PARP2/PARP1: ratio of PARP2 IC50 to PARP1 IC50
Chain of PARP1 (P09874 whole entry): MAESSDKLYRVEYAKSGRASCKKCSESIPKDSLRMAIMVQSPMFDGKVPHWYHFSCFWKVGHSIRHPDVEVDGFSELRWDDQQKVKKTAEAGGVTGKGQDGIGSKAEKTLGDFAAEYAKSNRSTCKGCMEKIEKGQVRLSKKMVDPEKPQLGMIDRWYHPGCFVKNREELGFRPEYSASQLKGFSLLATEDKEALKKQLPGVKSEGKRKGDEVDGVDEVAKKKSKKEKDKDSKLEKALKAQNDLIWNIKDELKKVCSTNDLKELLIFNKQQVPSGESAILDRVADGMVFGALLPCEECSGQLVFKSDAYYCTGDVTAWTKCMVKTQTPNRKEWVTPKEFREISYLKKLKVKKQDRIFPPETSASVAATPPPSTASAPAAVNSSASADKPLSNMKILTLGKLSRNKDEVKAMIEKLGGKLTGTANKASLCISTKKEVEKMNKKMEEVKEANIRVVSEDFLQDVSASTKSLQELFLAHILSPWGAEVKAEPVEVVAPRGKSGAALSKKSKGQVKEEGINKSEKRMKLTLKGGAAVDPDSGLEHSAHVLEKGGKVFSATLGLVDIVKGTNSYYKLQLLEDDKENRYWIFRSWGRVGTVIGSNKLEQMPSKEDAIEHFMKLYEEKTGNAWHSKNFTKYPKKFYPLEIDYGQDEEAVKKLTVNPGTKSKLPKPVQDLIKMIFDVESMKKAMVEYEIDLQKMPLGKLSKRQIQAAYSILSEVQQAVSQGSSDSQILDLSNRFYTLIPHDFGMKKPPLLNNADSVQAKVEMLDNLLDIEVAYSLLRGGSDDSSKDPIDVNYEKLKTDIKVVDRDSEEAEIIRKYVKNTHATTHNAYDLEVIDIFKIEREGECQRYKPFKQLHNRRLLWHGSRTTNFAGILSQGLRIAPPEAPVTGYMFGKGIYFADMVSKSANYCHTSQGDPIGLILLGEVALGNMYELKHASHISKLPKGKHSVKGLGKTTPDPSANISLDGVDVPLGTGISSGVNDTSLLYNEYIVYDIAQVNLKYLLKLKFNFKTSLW
Procedure: as §1, §2, §3, §4

| IC50 (MDA-MB-436 cells) [nM] | IC50 (PARP2) [nM] | IC50 (DLD-1 BRCA2(-/-) cells) [nM] | IC50 (PARP1) [nM] | Selectivity PARP2/PARP1 (PARP1) | SMILES |
| --- | --- | --- | --- | --- | --- |
| 4.2 | 70 | 1.5 | 0.7 | 107.3 | CNC(=O)c1ccc(N2CCN(Cc3cc(C4CC4)c4nc(C)c(=O)[nH]c4c3F)CC2)c(F)n1 [Example 19, 5-(4-((8-cyclopropyl-5-fluoro-2-methyl-3-oxo-3,4-dihydroquinoxalin-6-yl)methyl)piperazin-1-yl)-6-fluoro-N-methylpicolinamide] |
| 3.3 | 68.9 | 2.4 | 0.6 | 124.8 | C#Cc1cc(CN2CCN(c3ccc(C(=O)NC)nc3F)CC2)cc2[nH]c(=O)c(C)nc12 [Example 20, 5-(4-((8-ethynyl-2-methyl-3-oxo-3,4-dihydroquinoxalin-6-yl)methyl)piperazin-1-yl)-6-fluoro-N-methylpicolinamide] |
| 22.9 | > 10000 | 22.2 | 6.7 | >1480 | CC#Cc1cc(CN2CCN(c3ccc(C(=O)NC)nc3F)CC2)c(F)c2[nH]c(=O)c(C)nc12 [Example 21, 6-fluoro-5-(4-((5-fluoro-2-methyl-3-oxo-8-(prop-1-yn-1-yl)-3,4-dihydroquinoxalin-6-yl)methyl)piperazin-1-yl)-N-methylpicolinamide] |
| 40.1 | > 10000 | 68.8 | 2.8 | >833 | CNC(=O)c1ccc(N2CCN(Cc3cc(Oc4ccc(C#N)cc4)c4nc(C)c(=O)[nH]c4c3)CC2)c(F)n1 [Example 32, 5-(4-((8-(4-cyanophenoxy)-2-methyl-3-oxo-3,4-dihydroquinoxalin-6-yl)methyl)piperazin-1-yl)-6-fluoro-N-methylpicolinamide] |
| 4.1 | 234 | 9.3 | 1.2 | 188.8 | CNC(=O)c1ccc(N2CCN(Cc3cc(Nc4ccc(F)cc4)c4nc(C)c(=O)[nH]c4c3)CC2)c(F)n1 [Example 33, 6-fluoro-5-(4-((8-((4-fluorophenyl)amino)-2-methyl-3-oxo-3,4-dihydroquinoxalin-6-yl)methyl)piperazin-1-yl)-N-methylpicolinamide] |
| < 0.038 | 599 | 7.7 | 2.9 | 206.8 | CC#Cc1cc(CN2CC=C(c3ccc(C(=O)NC4CC4)nc3F)CC2)cc2[nH]c(=O)c(C)nc12 [Example 39, N-cyclopropyl-2-fluoro-1'-((2-methyl-3-oxo-8-(prop-1-yn-1-yl)-3,4-dihydroquinoxalin-6-yl)methyl)-1',2',3',6'-tetrahydro-[3,4'-bipyridine]-6-carboxamide] |
| 8 | 583 | 27 | 1.5 | 398.1 | CC#Cc1cc(CN2CCN(c3ccc(C#N)cn3)CC2)cc2[nH]c(=O)c(C)nc12 [Example 43, 6-(4-((2-methyl-3-oxo-8-(prop-1-yn-1-yl)-3,4-dihydroquinoxalin-6-yl)methyl)piperazin-1-yl)nicotinonitrile] |
| 11.1 | > 10000 | 12 | 7.7 | >1290.7 | CC#Cc1cc(CN2CCN(c3ccc(C(=O)NC)nc3C)CC2)c(F)c2[nH]c(=O)c(C)nc12 [Example 45, 5-(4-((5-fluoro-2-methyl-3-oxo-8-(prop-1-yn-1-yl)-3,4-dihydroquinoxalin-6-yl)methyl)piperazin-1-yl)-N,6-dimethylpicolinamide] |
| 0.6 | > 10000 | 18.6 | 6.9 | >1456.3 | CC#Cc1cc(CN2CCN(c3ccc(C(=O)NC4CC4)nc3F)CC2)c(F)c2[nH]c(=O)c(C)nc12 [Example 47, N-cyclopropyl-6-fluoro-5-(4-((5-fluoro-2-methyl-3-oxo-8-(prop-1-yn-1-yl)-3,4-dihydroquinoxalin-6-yl)methyl)piperazin-1-yl)picolinamide] |
| 9.1 | 54 | 12.9 | 3.2 | 17.0 | CNC(=O)c1ccc(N2CCN(Cc3cc(OC(F)F)c4nc(C)c(=O)[nH]c4c3)CC2)cn1 [Example 49, 5-(4-((8-(difluoromethoxy)-2-methyl-3-oxo-3,4-dihydroquinoxalin-6-yl)methyl)piperazin-1-yl)-N-methylpicolinamide] |
| 28.7 | 203 | 18.4 | 7.6 | 26.7 | CNC(=O)c1ccc(N2CCN(Cc3cc(OC(F)F)c4nc(C5CC5)c(=O)[nH]c4c3)CC2)c(F)n1 [Example 54, 5-(4-((2-cyclopropyl-8-(difluoromethoxy)-3-oxo-3,4-dihydroquinoxalin-6-yl)methyl)piperazin-1-yl)-6-fluoro-N-methylpicolinamide] |
| < 0.038 | 14.3 | 3.9 | 1.9 | 7.6 | CNC(=O)c1ccc(N2CCN(Cc3cc(OC(F)F)c4cc(C)c(=O)[nH]c4c3)CC2)c(F)n1 [Example 55, 5-(4-((5-(difluoromethoxy)-3-methyl-2-oxo-1,2-dihydroquinolin-7-yl)methyl)piperazin-1-yl)-6-fluoro-N-methylpicolinamide] |
| 1.7 | 79.5 | 2.9 | 1.7 | 47.3 | Cc1nc2c(OC(F)F)cc(CN3CCN(c4ccc(C(=O)N[C@H]5C[C@H]5F)nc4F)CC3)cc2[nH]c1=O [Example 57, 5-(4-((8-(difluoromethoxy)-2-methyl-3-oxo-3,4-dihydroquinoxalin-6-yl)methyl)piperazin-1-yl)-6-fluoro-N-((1S,2R)-2-fluorocyclopropyl)picolinamide] |
| 26.3 | 1220 | 8 | 1.9 | 650.4 | CNC(=O)c1ccc2c(n1)COC[C@H]1CN(Cc3cc(OC(F)F)c4nc(C)c(=O)[nH]c4c3)CCN21 [Example 59, (R)-3-((8-(difluoromethoxy)-2-methyl-3-oxo-3,4-dihydroquinoxalin-6-yl)methyl)-N-methyl-2,3,4,4a,5,7-hexahydro-1H-pyrazino[2,1-c]pyrido[3,2-e][1,4]oxazepine-9-carboxamide] |
| 31.2 | 5820 | 8.58 | 2.9 | 2030.7 | CNC(=O)c1ccc(N2CCN(Cc3cc(OC(F)F)c4nc(C)c(=O)[nH]c4c3F)CC2)c(C)n1 [Example 60, 5-(4-((8-(difluoromethoxy)-5-fluoro-2-methyl-3-oxo-3,4-dihydroquinoxalin-6-yl)methyl)piperazin-1-yl)-N,6-dimethylpicolinamide] |
| 6.2 | 1280 | 16.1 | 3.2 | 398.8 | CC#Cc1cc(CN2CCN3c4ccc(C(=O)NC)nc4COC[C@H]3C2)cc2[nH]c(=O)c(C)nc12 [Example 63, (R)-N-methyl-3-((2-methyl-3-oxo-8-(prop-1-yn-1-yl)-3,4-dihydroquinoxalin-6-yl)methyl)-2,3,4,4a,5,7-hexahydro-1H-pyrazino[2,1-c]pyrido[3,2-e][1,4]oxazepine-9-carboxamide] |

| SMILES | IC50 (MDA-MB-436 cells) [nM] | IC50 (PARP2) [nM] | IC50 (DLD-1 BRCA2(-/-) cells) [nM] | IC50 (PARP1) [nM] | Selectivity PARP2/PARP1 (PARP1) |
| --- | --- | --- | --- | --- | --- |
| CNC(=O)c1ccc(C2=CCN(Cc3cc(OC(F)F)c4nc(C)c(=O)[nH]c4c3)CC2)cn1 [Example 44, 1'-((8-(difluoromethoxy)-2-methyl-3-oxo-3,4-dihydroquinoxalin-6-yl)methyl)-N-methyl-1',2',3',6'-tetrahydro-[3,4'-bipyridine]-6-carboxamide] | 1.3 | 148 | 9.3 | 0.8 | 184.1 |
